Values joined by “and” are separate entries in the source; they are usually repeats but may differ in a detail not shown here. Equal values may be shown once. Inconclusive results and toxic doses are left out. The calls were made as follows: active = survival T/C of 150% or more; inactive = T/C below 125% in these data.
Tested on: P388 leukemia ip, CD2F1 mice, survival T/C
Assay: NCI In Vivo Anticancer Drug Screen. Data for tumor model P388 Leukemia (intraperitoneal) in CD2F1 (CDF1) mice
Conditions: endpoint: median survival time, higher = longer survival
How it was run: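 Mice carrying the transplanted tumor received test compound or vehicle. Survival was recorded in each group, and the value is the treated-group measurement divided by that of the vehicle-treated control group.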

[1] = dose: 60.0 mg/kg/injection, schedule: Q01DX005 (ip), vehicle: saline with Tween-80
[2] = dose: 120.0 mg/kg/injection, schedule: Q01DX005 (ip), vehicle: saline with Tween-80
[3] = dose: 240.0 mg/kg/injection, schedule: Q01DX005 (ip), vehicle: saline with Tween-80
[4] = dose: 50.0 mg/kg/injection, schedule: Q01DX009 (ip), vehicle: Klucel (hydroxypropylcellulose) (HPC)
[5] = dose: 100.0 mg/kg/injection, schedule: Q01DX009 (ip), vehicle: Klucel (hydroxypropylcellulose) (HPC)
[6] = dose: 50.0 mg/kg/injection, schedule: Q01DX005 (ip), vehicle: Klucel (hydroxypropylcellulose) (HPC)
[7] = dose: 100.0 mg/kg/injection, schedule: Q01DX005 (ip), vehicle: Klucel (hydroxypropylcellulose) (HPC)
[8] = dose: 200.0 mg/kg/injection, schedule: Q01DX005 (ip), vehicle: Klucel (hydroxypropylcellulose) (HPC)
[9] = dose: 50.0 mg/kg/injection, schedule: Q01DX005 (ip), vehicle: saline with Tween-80
[10] = dose: 100.0 mg/kg/injection, schedule: Q01DX005 (ip), vehicle: saline with Tween-80
[11] = dose: 200.0 mg/kg/injection, schedule: Q01DX005 (ip), vehicle: saline with Tween-80
[12] = dose: 100.0 mg/kg/injection, schedule: Q01DX009 (ip), vehicle: saline with Tween-80
[13] = dose: 100.0 mg/kg/injection, schedule: Q04DX003 (ip), vehicle: saline
[14] = dose: 200.0 mg/kg/injection, schedule: Q01DX009 (ip), vehicle: saline with Tween-80
[15] = dose: 200.0 mg/kg/injection, schedule: Q04DX003 (ip), vehicle: saline
[16] = dose: 400.0 mg/kg/injection, schedule: Q04DX003 (ip), vehicle: saline

Measured: T/C

Nc1ncnc2c1ccn2C1OC2COP(=O)(O)OC2C1O (stereo not drawn)
inactive: dose: 0.13 mg/kg/injection, schedule: Q03HX024 (ip), vehicle: saline 90 % of control | dose: 0.25 mg/kg/injection, schedule: Q03HX024 (ip), vehicle: saline 104 % of control | dose: 0.5 mg/kg/injection, schedule: Q03HX024 (ip), vehicle: saline 100 % of control | dose: 1.0 mg/kg/injection, schedule: Q01DX009 (ip), vehicle: saline 100 % of control | dose: 1.0 mg/kg/injection, schedule: Q03HX024 (ip), vehicle: saline 122 % of control | dose: 1.0 mg/kg/injection, schedule: Q04DX003 (ip), vehicle: saline 104 % of control | dose: 2.0 mg/kg/injection, schedule: Q01DX001 (ip), vehicle: saline 100 % of control | dose: 2.0 mg/kg/injection, schedule: Q01DX009 (ip), vehicle: saline 104 % of control | dose: 2.0 mg/kg/injection, schedule: Q04DX003 (ip), vehicle: saline 100 % of control | dose: 4.0 mg/kg/injection, schedule: Q01DX001 (ip), vehicle: saline 100 % of control | dose: 4.0 mg/kg/injection, schedule: Q04DX003 (ip), vehicle: saline 104 % of control | dose: 8.0 mg/kg/injection, schedule: Q01DX001 (ip), vehicle: saline 109 % of control | dose: 8.0 mg/kg/injection, schedule: Q01DX009 (ip), vehicle: saline 95 % of control | dose: 8.0 mg/kg/injection, schedule: Q04DX003 (ip), vehicle: saline 113 % of control | dose: 16.0 mg/kg/injection, schedule: Q01DX001 (ip), vehicle: saline 118 % of control

N#Cc1c[nH]n2ccnc12
inactive: dose: 60.0 mg/kg/injection, schedule: Q01DX005 (ip), vehicle: Klucel (hydroxypropylcellulose) (HPC) 101 % of control | dose: 120.0 mg/kg/injection, schedule: Q01DX005 (ip), vehicle: Klucel (hydroxypropylcellulose) (HPC) 101 % of control | dose: 240.0 mg/kg/injection, schedule: Q01DX005 (ip), vehicle: Klucel (hydroxypropylcellulose) (HPC) 105 % of control

CC(=O)OC(C(Br)CBr)C(OC(C)=O)C(Br)CBr (stereo not drawn)
inactive: dose: 7.5 mg/kg/injection, schedule: Q01DX009 (ip), vehicle: saline 104 % of control | dose: 15.0 mg/kg/injection, schedule: Q01DX009 (ip), vehicle: saline 110 % of control | dose: 30.0 mg/kg/injection, schedule: Q01DX009 (ip), vehicle: saline 106 % of control

COC(=O)/C(=C/c1ccc(/C=C(/C(=O)O)c2ccc(OC)cc2)o1)c1ccccc1
inactive: [1] 97 % of control | [2] 100 % of control | [3] 90 % of control

O=C(OCc1ccccc1)N1Cc2cc3ccccc3nc2C1
inactive: dose: 100.0 mg/kg/injection, schedule: Q04DX003 (ip), vehicle: saline with Tween-80 103 % of control | dose: 200.0 mg/kg/injection, schedule: Q04DX003 (ip), vehicle: saline with Tween-80 103 % of control | dose: 400.0 mg/kg/injection, schedule: Q04DX003 (ip), vehicle: saline with Tween-80 101 % of control

CCCCCCCCCCCCCOC(=O)CC(C(=O)OCCCCCCCCCCCCC)S(=O)(=O)O (stereo not drawn)
inactive: [4] 99 % of control | [5] 95 % of control

C[C@@]12CCC[C@@](C)(C(=O)O)[C@H]1CC[C@]13C[C@@H](CO)[C@@H](CC[C@H]12)C3
inactive: [6] 99 % of control | [7] 90 % of control | [8] 87 % of control

O=c1sc(N=Nc2ccccc2)nn1-c1ccccc1
inactive: dose: 50.0 mg/kg/injection, schedule: Q04DX003 (ip), vehicle: other 90 % of control | dose: 100.0 mg/kg/injection, schedule: Q04DX003 (ip), vehicle: other 95 % of control | dose: 200.0 mg/kg/injection, schedule: Q04DX003 (ip), vehicle: other 95 % of control

CCOC(=O)c1c[nH]c2ccc3[nH]cnc3c2c1=O
inactive: [6] 95 % of control | [7] 99 % of control | [8] 95 % of control

NC(N)=N/N=C/c1ccc[nH]1
inactive: [9] 104 % of control | [10] 106 % of control | [11] 104 % of control

O=C(O)CCNC(=O)CCCO
inactive: dose: 50.0 mg/kg/injection, schedule: Q01DX005 (ip), vehicle: saline 100 % of control | dose: 100.0 mg/kg/injection, schedule: Q01DX005 (ip), vehicle: saline 104 % of control | dose: 200.0 mg/kg/injection, schedule: Q01DX005 (ip), vehicle: saline 104 % of control

NC=O
inactive: [12] 109 % of control | [13] 100 % of control | [14] 118 % of control | [15] 100 % of control | dose: 400.0 mg/kg/injection, schedule: Q01DX009 (ip), vehicle: saline with Tween-80 118 % of control | [16] 118 % of control

CC(=O)c1cccc(NC(=O)Nc2nccs2)c1
inactive: dose: 25.0 mg/kg/injection, schedule: Q01DX009 (ip), vehicle: Klucel (hydroxypropylcellulose) (HPC) 102 % of control | [4] 110 % of control | [5] 101 % of control | dose: 200.0 mg/kg/injection, schedule: Q01DX009 (ip), vehicle: Klucel (hydroxypropylcellulose) (HPC) 105 % of control

CCOC(=O)CNC(=O)OC(C)(C)C
inactive: [1] 103 % of control | [2] 100 % of control | [3] 108 % of control

CCCCCCCCCCCCCCCCC1=C(C(=O)OC)NC(N)=NC1O (stereo not drawn)
inactive: dose: 7.5 mg/kg/injection, schedule: Q01DX005 (ip), vehicle: saline with Tween-80 103 % of control | dose: 15.0 mg/kg/injection, schedule: Q01DX005 (ip), vehicle: saline with Tween-80 100 % of control | dose: 30.0 mg/kg/injection, schedule: Q01DX005 (ip), vehicle: saline with Tween-80 102 % of control | [1] 103 % of control | [2] 103 % of control | dose: 600.0 mg/kg/injection, schedule: Q01DX005 (ip), vehicle: saline with Tween-80 106 % of control

C/C=C/Cc1n[nH]c(=O)c2c(C)[nH]nc12
inactive: dose: 25.0 mg/kg/injection, schedule: Q04DX002 (ip), vehicle: Klucel (hydroxypropylcellulose) (HPC) 105 % of control | dose: 50.0 mg/kg/injection, schedule: Q04DX002 (ip), vehicle: Klucel (hydroxypropylcellulose) (HPC) 103 % of control | dose: 100.0 mg/kg/injection, schedule: Q04DX002 (ip), vehicle: Klucel (hydroxypropylcellulose) (HPC) 104 % of control and 90 % of control

c1ccc2c(c1)Sc1ccccc1C2=C1c2ccccc2Sc2ccccc21
inactive: [9] 88 % of control | [10] 90 % of control | [11] 88 % of control

CCN(CC)C(=O)C1(C)NS(=O)(=O)c2ccccc2C1=O (stereo not drawn)
inactive: dose: 25.0 mg/kg/injection, schedule: Q01DX009 (ip), vehicle: saline with Tween-80 106 % of control | dose: 50.0 mg/kg/injection, schedule: Q01DX009 (ip), vehicle: saline with Tween-80 98 % of control and 110 % of control and 96 % of control | [12] 98 % of control and 110 % of control and 97 % of control | [14] 95 % of control

N#Cc1ccoc1
inactive: dose: 12.5 mg/kg/injection, schedule: Q01DX005 (ip), vehicle: Klucel (hydroxypropylcellulose) (HPC) 93 % of control | dose: 25.0 mg/kg/injection, schedule: Q01DX005 (ip), vehicle: Klucel (hydroxypropylcellulose) (HPC) 102 % of control | [6] 104 % of control

COc1c2c(cc3c1C(O)N(C)CC3)OCO2 (stereo not drawn)
inactive: dose: 30.0 mg/kg/injection, schedule: Q01DX005 (ip), vehicle: saline 100 % of control | dose: 60.0 mg/kg/injection, schedule: Q01DX005 (ip), vehicle: saline 100 % of control and 93 % of control

Cc1cnc(I)[nH]1
inactive: dose: 100.0 mg/kg/injection, schedule: Q01DX001 (ip), vehicle: saline 102 % of control | [13] 107 % of control | dose: 200.0 mg/kg/injection, schedule: Q01DX001 (ip), vehicle: saline 105 % of control | [15] 112 % of control | [16] 92 % of control

COC1=C(C(C2=C(OC)CC(C)(C)CC2=O)c2ccc3c(c2)OCO3)C(=O)CC(C)(C)C1
inactive: [1] 102 % of control | [2] 111 % of control | [3] 101 % of control

CC1(C)CC(C)(C)[P+]1(C)c1ccccc1
inactive: dose: 25.0 mg/kg/injection, schedule: Q01DX001 (ip), vehicle: saline 107 % of control | dose: 50.0 mg/kg/injection, schedule: Q01DX001 (ip), vehicle: saline 103 % of control
